pEC50, pIC50: −log10 of the molar value.
Key:
[1] = molecular target: T1, HCV polymerase 1B (Δ21 NS5B, BK) (Hepatitis C virus genotype 1b, UniProt P26663); assay: biochemical
T1 construct: 20 to 50 nM Δ21 NS5B
Summary of the method: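 Δ21 NS5B (genotype 1b, BK […]) preincubated 15 min RT with inhibitor, 2 mM MnCl2, pH 7.4, 60–125 μM GTP; started with 20 μM CTP/ATP, 1 μM 3H-UTP, 5 nM template RNA, run 2–4 h RT. Spermine-precipitated RNA filter-captured, scintillation counted; IC50 from tight-binding (Morrison) fit.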

[2] = test system: genotype 1b-Con1 subgenomic replicon cell line; assay: microbe, parasite or virus in culture; assay type: cell-based, HCV; settings: Hepatitis C virus, read-out: EC50 1b
[3] = test system: genotype 1a-H77 subgenomic replicon cell line; assay: microbe, parasite or virus in culture; assay type: cell-based, HCV; settings: Hepatitis C virus, read-out: EC50 1a
[4] = molecular target: T2, HCV polymerase 1A (Δ21 NS5B, H77) (Hepatitis C virus genotype 1a, UniProt P27958); assay: biochemical; settings: IC50 1a
T2 construct: 20 to 50 nM Δ21 NS5B
T2 sequence (P27958 2421-2990, stated change not applied): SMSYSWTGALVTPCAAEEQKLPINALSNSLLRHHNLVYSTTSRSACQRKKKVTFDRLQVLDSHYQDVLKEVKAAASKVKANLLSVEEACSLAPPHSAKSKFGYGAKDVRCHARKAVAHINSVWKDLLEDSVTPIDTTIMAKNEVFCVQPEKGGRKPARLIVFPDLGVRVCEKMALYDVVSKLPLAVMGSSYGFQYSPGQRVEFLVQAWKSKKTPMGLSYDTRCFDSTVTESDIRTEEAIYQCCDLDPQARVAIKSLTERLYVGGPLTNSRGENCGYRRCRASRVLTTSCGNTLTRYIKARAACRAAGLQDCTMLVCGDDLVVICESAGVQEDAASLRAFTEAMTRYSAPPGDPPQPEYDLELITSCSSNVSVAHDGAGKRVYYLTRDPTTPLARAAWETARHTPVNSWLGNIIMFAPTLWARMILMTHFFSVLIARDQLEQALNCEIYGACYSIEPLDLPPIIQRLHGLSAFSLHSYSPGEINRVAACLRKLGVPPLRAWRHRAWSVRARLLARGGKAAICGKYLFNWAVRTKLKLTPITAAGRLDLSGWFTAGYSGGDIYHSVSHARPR
Summary of the method: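 Incorporation of 1 μM ^3H-UTP, with 20 μM each of CTP and ATP on 5 nM template RNA, ran 2–4 h at room temperature. Spermine-precipitated product was filtered and scintillation-counted. IC50 came from tight-binding non-linear regression of cpm against inhibitor concentration.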

T1 sequence (P26663 2420-2989, stated change not applied): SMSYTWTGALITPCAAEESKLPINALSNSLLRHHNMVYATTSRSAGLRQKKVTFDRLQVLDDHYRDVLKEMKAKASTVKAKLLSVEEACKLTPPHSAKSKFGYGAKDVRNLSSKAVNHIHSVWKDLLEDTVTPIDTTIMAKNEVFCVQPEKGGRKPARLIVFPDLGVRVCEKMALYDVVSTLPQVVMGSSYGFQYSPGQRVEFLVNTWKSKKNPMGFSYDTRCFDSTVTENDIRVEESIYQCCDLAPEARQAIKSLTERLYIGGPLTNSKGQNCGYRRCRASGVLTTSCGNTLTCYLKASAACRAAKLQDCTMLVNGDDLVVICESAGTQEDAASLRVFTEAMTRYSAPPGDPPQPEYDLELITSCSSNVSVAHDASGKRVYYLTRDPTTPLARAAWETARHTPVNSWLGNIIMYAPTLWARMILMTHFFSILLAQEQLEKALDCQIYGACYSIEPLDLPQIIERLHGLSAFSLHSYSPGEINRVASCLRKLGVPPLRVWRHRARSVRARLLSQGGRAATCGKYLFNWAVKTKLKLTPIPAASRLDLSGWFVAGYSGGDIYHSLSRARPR

CNS(=O)(=O)Cc1ccc(NC(=O)c2cc(N3CCC(=O)NC3=O)cc(C(C)(C)C)c2O)cc1 [IA-L3-1.16, 3-tert-butyl-5-(2,4-dioxotetrahydropyrimidin-1(2H)-yl)-2-hydroxy-N-(4-(N-methylsulfamoylmethyl)phenyl)benzamide]
pIC50 [1]: 7.00 to 8.00
pEC50 [2]: < 6.00
pEC50 [3]: < 6.00
pIC50 [4]: < 6.00

CC(C)(C)c1cc(N2CCC(=O)NC2=O)cc(C(=O)Nc2ccc(OS(C)(=O)=O)cc2)c1O [IA-L3-1.19, 4-(3-tert-butyl-5-(2,4-dioxotetrahydropyrimidin-1(2H)-yl)-2-hydroxybenzamido)phenyl methanesulfonate]
pIC50 [1]: 7.00 to 8.00
pEC50 [2]: < 6.00
pEC50 [3]: < 6.00
pIC50 [4]: 6.00 to 7.00

CC(C)(C)c1cc(N2CCC(=O)NC2=O)cc(C(=O)Nc2ccccc2S(C)(=O)=O)c1O [IA-L3-1.20, 3-tert-butyl-5-(2,4-dioxotetrahydropyrimidin-1(2H)-yl)-2-hydroxy-N-(2-(methylsulfonyl)phenyl)benzamide]
pIC50 [1]: 7.00 to 8.00
pEC50 [2]: < 6.00
pEC50 [3]: < 6.00
pIC50 [4]: < 6.00

CC(C)(C)c1cc(N2CCC(=O)NC2=O)cc(C(=O)Nc2ccc(S(C)(=O)=O)cc2)c1O [IA-L3-1.21, 3-tert-butyl-5-(2,4-dioxotetrahydropyrimidin-1(2H)-yl)-2-hydroxy-N-(4-(methylsulfonyl)phenyl)benzamide]
pIC50 [1]: 6.00 to 7.00
pEC50 [2]: < 6.00
pEC50 [3]: < 6.00
pIC50 [4]: < 6.00

CC(C)(C)c1cc(N2CCC(=O)NC2=O)cc(C(=O)Nc2ccccc2S(N)(=O)=O)c1O [IA-L3-1.22, 3-tert-butyl-5-(2,4-dioxotetrahydropyrimidin-1(2H)-yl)-2-hydroxy-N-(2-sulfamoylphenyl)benzamide]
pIC50 [1]: 7.00 to 8.00
pEC50 [2]: < 6.00
pEC50 [3]: < 6.00
pIC50 [4]: 6.00 to 7.00

COc1c(C(=O)Nc2ccccc2)cc(N2CCC(=O)NC2=O)cc1C(C)(C)C [IA-L3-1.24, 3-tert-butyl-5-(2,4-dioxotetrahydropyrimidin-1(2H)-yl)-2-methoxy-N-phenylbenzamide]
pIC50 [1]: 6.00 to 7.00
pEC50 [2]: < 6.00
pEC50 [3]: < 6.00
pIC50 [4]: 6.00 to 7.00

COc1c(C(=O)N(C)c2ccc(NS(C)(=O)=O)cc2)cc(N2CCC(=O)NC2=O)cc1C(C)(C)C [IA-L3-1.27, 3-tert-butyl-5-(2,4-dioxotetrahydropyrimidin-1(2H)-yl)-2-methoxy-N-methyl-N-(4-(methylsulfonamido)phenyl)benzamide]
pIC50 [1]: 6.00 to 7.00
pEC50 [2]: < 6.00
pEC50 [3]: < 6.00
pIC50 [4]: 6.00 to 7.00

COc1c(C(=O)Nc2ccc(CC(=O)O)cc2)cc(N2CCC(=O)NC2=O)cc1C(C)(C)C [IA-L3-1.30, 2-(4-(3-tert-butyl-5-(2,4-dioxotetrahydropyrimidin-1(2H)-yl)-2-methoxybenzamido)phenyl)-acetic acid]
pIC50 [1]: 6.00 to 7.00
pEC50 [2]: < 6.00
pEC50 [3]: < 6.00
pIC50 [4]: < 6.00

CNS(=O)(=O)Cc1ccc(NC(=O)c2cc(N3CCC(=O)NC3=O)cc(C(C)(C)C)c2OC)cc1 [IA-L3-1.31, 3-tert-butyl-5-(2,4-dioxotetrahydropyrimidin-1(2H)-yl)-2-methoxy-N-(4-(N-methylsulfamoylmethyl)phenyl)benzamide]
pIC50 [1]: < 6.00
pEC50 [2]: < 6.00
pEC50 [3]: < 6.00
pIC50 [4]: < 6.00

COc1c(C(=O)Nc2ccc(O)cc2)cc(N2CCC(=O)NC2=O)cc1C(C)(C)C [IA-L3-1.33, 3-tert-butyl-5-(2,4-dioxotetrahydropyrimidin-1(2H)-yl)-N-(4-hydroxyphenyl)-2-methoxybenzamide]
pIC50 [1]: 6.00 to 7.00
pEC50 [2]: < 6.00
pEC50 [3]: < 6.00
pIC50 [4]: < 6.00

COc1c(C(=O)Nc2ccc(OCC#N)cc2)cc(N2CCC(=O)NC2=O)cc1C(C)(C)C [IA-L3-1.38, 3-tert-butyl-N-(4-(cyanomethoxy)phenyl)-5-(2,4-dioxotetrahydropyrimidin-1(2H)-yl)-2-methoxybenzamide]
pIC50 [1]: 6.00 to 7.00
pEC50 [2]: < 6.00
pEC50 [3]: < 6.00
pIC50 [4]: < 6.00

COc1c(C(=O)Nc2ccc(OCC(N)=O)cc2)cc(N2CCC(=O)NC2=O)cc1C(C)(C)C [IA-L3-1.39, N-(4-(2-amino-2-oxoethoxy)phenyl)-3-tert-butyl-5-(2,4-dioxotetrahydropyrimidin-1(2H)-yl)-2-methoxybenzamide]
pIC50 [1]: 6.00 to 7.00
pEC50 [2]: < 6.00
pEC50 [3]: < 6.00
pIC50 [4]: < 6.00

COc1c(C(=O)Nc2ccc(OS(C)(=O)=O)cc2)cc(N2CCC(=O)NC2=O)cc1C(C)(C)C [IA-L3-1.41, 4-(3-tert-butyl-5-(2,4-dioxotetrahydropyrimidin-1(2H)-yl)-2-methoxybenzamido)phenyl methanesulfonate]
pIC50 [1]: < 6.00
pEC50 [2]: 6.00 to 7.00
pEC50 [3]: < 6.00
pIC50 [4]: 6.00 to 7.00

COc1c(C(=O)Nc2ccc(NS(C)(=O)=O)cc2)cc(N2CCC(=O)NC2=O)cc1C(C)(C)C [IA-L3-1.51]
pIC50 [1]: 7.00 to 8.00
pEC50 [2]: 7.00 to 8.00
pEC50 [3]: 6.00 to 7.00
pIC50 [4]: 7.00 to 8.00

COc1c(C(=O)Nc2ccc(NS(=O)(=O)CC(C)C)cc2)cc(N2CCC(=O)NC2=O)cc1C(C)(C)C [IA-L3-1.52, 3-tert-butyl-5-(2,4-dioxotetrahydropyrimidin-1(2H)-yl)-2-methoxy-N-(4-(2-methylpropyl-sulfonamido)phenyl)benzamide]
pIC50 [1]: 6.00 to 7.00
pEC50 [2]: 6.00 to 7.00
pEC50 [3]: < 6.00
pIC50 [4]: 6.00 to 7.00

COc1c(C(=O)Nc2ccc(NS(=O)(=O)CC(F)(F)F)cc2)cc(N2CCC(=O)NC2=O)cc1C(C)(C)C [IA-L3-1.55, 3-tert-butyl-5-(2,4-dioxotetrahydropyrimidin-1(2H)-yl)-2-methoxy-N-(4-(2,2,2-trifluoro-ethylsulfonamido)phenyl)benzamide]
pIC50 [1]: 6.00 to 7.00
pEC50 [2]: < 6.00
pEC50 [3]: < 6.00
pIC50 [4]: 6.00 to 7.00

COc1c(C(=O)Nc2ccc(NS(=O)(=O)Cc3ccccc3)cc2)cc(N2CCC(=O)NC2=O)cc1C(C)(C)C [IA-L3-1.57, 3-tert-butyl-5-(2,4-dioxotetrahydropyrimidin-1(2H)-yl)-2-methoxy-N-(4-(phenylmethyl-sulfonamido)phenyl)benzamide]
pIC50 [1]: 6.00 to 7.00
pEC50 [2]: 6.00 to 7.00
pEC50 [3]: 6.00 to 7.00
pIC50 [4]: 7.00 to 8.00

COc1c(C(=O)Nc2ccc(NS(=O)(=O)c3c(C)noc3C)cc2)cc(N2CCC(=O)NC2=O)cc1C(C)(C)C [IA-L3-1.59, 3-tert-butyl-N-[4-(3,5-dimethyl-isoxazole-4-sulfonylamino)-phenyl]-5-(2,4-dioxo-tetrahydro-pyrimidin-1-yl)-2-methoxy-benzamide]
pIC50 [1]: 7.00 to 8.00
pEC50 [2]: < 6.00
pEC50 [3]: < 6.00
pIC50 [4]: 6.00 to 7.00

COc1c(C(=O)Nc2ccc(NS(=O)(=O)c3ccccc3)cc2)cc(N2CCC(=O)NC2=O)cc1C(C)(C)C [IA-L3-1.60, 3-tert-butyl-5-(2,4-dioxotetrahydropyrimidin-1(2H)-yl)-2-methoxy-N-(4-(phenylsulfonamido)phenyl)benzamide]
pIC50 [1]: 7.00 to 8.00
pEC50 [2]: 7.00 to 8.00
pEC50 [3]: 6.00 to 7.00
pIC50 [4]: 7.00 to 8.00

COc1c(C(=O)Nc2ccc(N(C)S(C)(=O)=O)cc2)cc(N2CCC(=O)NC2=O)cc1C(C)(C)C [IA-L3-1.62, 3-tert-butyl-5-(2,4-dioxotetrahydropyrimidin-1(2H)-yl)-2-methoxy-N-(4-(N-methylmethylsulfonamido)phenyl)benzamide]
pIC50 [1]: 6.00 to 7.00
pEC50 [2]: 6.00 to 7.00
pEC50 [3]: < 6.00
pIC50 [4]: 6.00 to 7.00

COc1ccc(CN(c2ccc(NC(=O)c3cc(N4CCC(=O)NC4=O)cc(C(C)(C)C)c3OC)cc2)S(C)(=O)=O)cc1 [IA-L3-1.67, 3-tert-butyl-5-(2,4-dioxotetrahydropyrimidin-1(2H)-yl)-2-methoxy-N-(4-(N-(4-methoxy-benzyl)methylsulfonamido)phenyl)benzamide]
pIC50 [1]: < 6.00
pEC50 [2]: 6.00 to 7.00
pEC50 [3]: < 6.00
pIC50 [4]: < 6.00

COc1c(C(=O)Nc2ccc(N(C(C)=O)S(C)(=O)=O)cc2)cc(N2CCC(=O)NC2=O)cc1C(C)(C)C [IA-L3-1.69, N-[4-(acetyl-methanesulfonyl-amino)-phenyl]-3-tert-butyl-5-(2,4-dioxo-tetrahydro-pyrimidin-1-yl)-2-methoxy-benzamide]
pIC50 [1]: 6.00 to 7.00
pEC50 [2]: 7.00 to 8.00
pEC50 [3]: 6.00 to 7.00
pIC50 [4]: 6.00 to 7.00

CCC(=O)N(c1ccc(NC(=O)c2cc(N3CCC(=O)NC3=O)cc(C(C)(C)C)c2OC)cc1)S(C)(=O)=O [IA-L3-1.70, 3-tert-butyl-5-(2,4-dioxotetrahydropyrimidin-1(2H)-yl)-2-methoxy-N-(4-(N-(methylsulfonyl)propionamido)phenyl)benzamide]
pIC50 [1]: < 6.00
pEC50 [2]: 7.00 to 8.00
pEC50 [3]: 6.00 to 7.00
pIC50 [4]: < 6.00

CCCC(=O)N(c1ccc(NC(=O)c2cc(N3CCC(=O)NC3=O)cc(C(C)(C)C)c2OC)cc1)S(C)(=O)=O [IA-L3-1.71, 3-tert-butyl-5-(2,4-dioxotetrahydropyrimidin-1(2H)-yl)-2-methoxy-N-(4-(N-(methylsulfonyl)butyramido)phenyl)benzamide]
pIC50 [1]: < 6.00
pEC50 [2]: 7.00 to 8.00
pEC50 [3]: 6.00 to 7.00
pIC50 [4]: 6.00 to 7.00

COc1c(C(=O)Nc2ccc(NS(C)(=O)=O)cc2C)cc(N2CCC(=O)NC2=O)cc1C(C)(C)C [IA-L3-1.83, 3-tert-butyl-5-(2,4-dioxotetrahydropyrimidin-1(2H)-yl)-2-methoxy-N-(2-methyl-4-(methylsulfonamido)phenyl)benzamide]
pIC50 [1]: 6.00 to 7.00
pEC50 [2]: 6.00 to 7.00
pEC50 [3]: 6.00 to 7.00
pIC50 [4]: 7.00 to 8.00

From US8415351B2 (priority 2007, dated 2013)
